Data from the supplement of paper PMC13380429.
± gives the standard deviation of the averaged measurements.

Key:
Conditions in all cases: 72 h
Vero E6 [1] = assay: relative viability EC50 (midpoint between 100% and the lowest measured viability); higher = less toxic
U2OS [2] = assay: as above
HepG2 [3] = assay: as above
Calu-3 [4] = assay: as above
Caco-2 [5] = assay: as above
Vero E6 [6] = assay: drug sensitivity score (DSS) for viability; higher = more toxic; extreme values may be limits of the assay
U2OS [7] = assay: as above
HepG2 [8] = assay: as above
Calu-3 [9] = assay: as above
Caco-2 [10] = assay: as above
Vero E6 [11] = assay: cell viability relative to DMSO; higher = less toxic
U2OS [12] = assay: as above
HepG2 [13] = assay: as above
Calu-3 [14] = assay: as above
Caco-2 [15] = assay: as above

SMILES	relative viability EC50 (Vero E6 [1]) [µM]	relative viability EC50 (U2OS [2]) [µM]	relative viability EC50 (HepG2 [3]) [µM]	relative viability EC50 (Calu-3 [4]) [µM]	relative viability EC50 (Caco-2 [5]) [µM]	drug sensitivity score (Vero E6 [6])	drug sensitivity score (U2OS [7])	drug sensitivity score (HepG2 [8])	drug sensitivity score (Calu-3 [9])	drug sensitivity score (Caco-2 [10])	cell viability (Vero E6 [11]; 1 nM) [%]	cell viability (Vero E6 [11]; 10 nM) [%]	cell viability (Vero E6 [11]; 100 nM) [%]	cell viability (Vero E6 [11]; 1000 nM) [%]	cell viability (Vero E6 [11]; 10000 nM) [%]	cell viability (U2OS [12]; 1 nM) [%]	cell viability (U2OS [12]; 10 nM) [%]	cell viability (U2OS [12]; 100 nM) [%]	cell viability (U2OS [12]; 1000 nM) [%]	cell viability (U2OS [12]; 10000 nM) [%]	cell viability (HepG2 [13]; 1 nM) [%]	cell viability (HepG2 [13]; 10 nM) [%]	cell viability (HepG2 [13]; 100 nM) [%]	cell viability (HepG2 [13]; 1000 nM) [%]	cell viability (HepG2 [13]; 10000 nM) [%]	cell viability (Calu-3 [14]; 1 nM) [%]	cell viability (Calu-3 [14]; 10 nM) [%]	cell viability (Calu-3 [14]; 100 nM) [%]	cell viability (Calu-3 [14]; 1000 nM) [%]	cell viability (Calu-3 [14]; 10000 nM) [%]	cell viability (Caco-2 [15]; 1 nM) [%]	cell viability (Caco-2 [15]; 10 nM) [%]	cell viability (Caco-2 [15]; 100 nM) [%]	cell viability (Caco-2 [15]; 1000 nM) [%]	cell viability (Caco-2 [15]; 10000 nM) [%]
O=C(O)[C@H]1CCCN(CCC=C(c2ccccc2)c2ccccc2)C1 (racemic)	> 10	> 10	> 10	> 10	> 10	0	0	0	0	0	99.6	100	101	102	103	98.6	98.2	98.1	102	91.3	107	94.5	83.9	108	99.2	96.8	98.5	111	90.9	111	95.9	98.7	102	95.7	94.9
CC(C)NC[C@@H](O)COc1ccc(CC(N)=O)cc1 (racemic) [atenolol-(+/-)]	> 10	> 10	> 10	> 10	> 10	0.1 ± 0.14	0	0.05 ± 0.071	0	0.25 ± 0.35	103 ± 4.4	85.3 ± 10	105 ± 4.5	92.4 ± 13	97 ± 5.9	98.2 ± 3.5	96 ± 3	100.1 ± 0.28	97 ± 0.71	99.1 ± 3.7	101 ± 10	92 ± 14	98.9 ± 9.5	96.2 ± 8.2	99.2 ± 18	94.2 ± 4.5	101 ± 11	96.5 ± 3.4	97.8 ± 2.3	102 ± 2.6	99.8 ± 9.3	99 ± 11	105 ± 7	88.3 ± 0.99	92.1 ± 0.85
CC(C)CC(NC(=O)OCC1c2ccccc2-c2ccccc21)C(=O)O (stereo in doubt)	> 10	> 10	> 10	> 10	> 10	0	0	0	0	0	97.3	102	95.6	94.5	108	91	95.3	105	99.7	101	90.3	103	90.1	102	97.8	89.2	102	107	102	92.8	85.2	90.4	104	96.5	98.2
CC(C)C(N)C(=O)O (stereo in doubt) [L-valine]	> 10	> 10	> 10	> 10	> 10	0	0	0	0	0	96.8	96.7	96.6	92.3	95.5	101	92.7	98.1	93.5	102	94.8	94.5	99	96.9	99.3	102	105	95.9	93	99	96	91.3	100	98.7	102
CC(C)(S)C(N)C(=O)O (stereo in doubt) [penicillamine-(racemic)]	> 10	> 10	> 10	> 10	> 10	0	0	0	0	0	104 ± 6.7	102 ± 5.4	102 ± 2.6	99.9 ± 7.1	101 ± 3.6	103 ± 1.8	97.4 ± 2.1	100.2 ± 0.35	98.5 ± 6.2	101 ± 1.1	103	106	110	95	100	95.7 ± 11	94.9 ± 13	98.3 ± 5	106 ± 3.7	108 ± 3.2	105 ± 1.9	98 ± 0.42	96 ± 3.5	93.7 ± 4.4	98.55 ± 0.35
NCCOB(c1ccccc1)c1ccccc1 [2-APB]	> 10	> 10	> 10	> 10	> 10	0	0	0	0	0	110	108	97.4	101	105	96	95.6	100	100	104	96.8	112	91.2	93.4	92.1	101	96.3	99.1	105	103	91	93.3	98.5	94.3	104
O=C(O)CNC(=O)c1ccccc1I [2-iodohippuric-acid]	> 10	> 10	> 10	> 10	> 10	0	0	0	0	0	109	107	99.1	102	97.8	100	97.6	97.8	96.7	102	101	100	97.3	101	91.3	101	106	91.7	104	91.7	103	103	93.1	96.4	105
O/N=C/c1ccc(-c2ccc(O)c(F)c2)c(Cl)c1O [FERb-033]	> 10	> 10		> 10	> 10	0	0	1.2	0.3	0.8	97.7	106	98.8	103	95.7	102	97.1	99.5	96.9	93.9	95.7	104	100	99.8	71.1	104	101	100	98.9	84.8	98.1	95.2	93.4	91.9	81.4
O=S(=O)(c1cccc2c(Cl)cccc12)N1CCCNCC1 [ML9]	> 10	> 10		> 10	> 10	0	0	1.5	0	0.1	89	96.9	87.9	96.8	94.1	95.5	93.3	96.9	102	103	96.3	96.5	90.8	93.3	74.7	110	104	110	99.9	98.9	94.5	91.6	97.3	88	87.7
O=C(O)c1ccc(Nc2ncc3c(n2)-c2ccc(Cl)cc2C(c2c(F)cccc2F)=NC3)cc1 [MLN8054]	> 10	> 10		> 10	> 10	1.1	2	5.1	0.6	3.3	103	97.9	104	91.7	82.7	103	105	100	90	76.7	109	108	96.7	73.2	62.3	96.2	96.2	112	91.3	86.8	94.4	100	87	82	82.5
CCOC(=O)c1c(O)nc2cccc3c2c1-c1ccccc1C3=O [NQDI-1]	> 10	> 10		> 10	> 10	0	0	5	0	0	104	103	102	95.9	94	95.6	101	102	97.7	101	106	102	98.4	76	57.2	91.5	96.8	95.7	95.2	104	89.6	103	89.7	92.9	98.3
N=C(N)c1ccc(/N=N/Nc2ccc(C(=N)N)cc2)cc1 [diminazene-aceturate]	> 10	> 10		> 10	> 10	0	0	4.2	0	1.9	99.7	109	107	102	91.3	99	98.3	103	98.2	107	112	113	90.2	86.5	50.5	93.7	101	99.9	99.2	94.8	104	102	112	91.1	76.6
CCCCCCCCCCCCCCC[C@@H](O)[C@@H](N)CO [safingol]	> 10	> 10		> 10	2.87	0	0	1.9	0	6	106	106	96.1	104	106	94	97.9	102	97.9	103	106	103	80	95.5	73.7	85.3	96.8	95.2	108	96.4	94.1	85.3	91	96.1	1.7
CC[C@H](NC(=O)c1c(O)c(-c2ccccc2)nc2ccccc12)c1ccccc1 [talnetant]	> 10	> 10		> 10	> 10	0	0	1	0	0	109	102	98.4	102	102	100	92.7	104	95	101	102	99	94.6	100	74.2	104	97.3	104	96.5	106	97.9	98.9	101	98.1	90
O=c1n(CC2CO2)c(=O)n(CC2CO2)c(=O)n1CC1CO1 (configuration not stated) [teroxirone]	> 10	> 10		> 10	> 10	0.4	0	4	0	0.4	100	105	98.5	102	80.8	103	95.7	104	102	96.2	99.9	100	92.8	91.1	51.8	94.4	91.2	99.3	84.1	90.9	102	101	95.6	93.2	84.3
